Measured values taken from patent publication US6025390A, “Heteroaromatic pentadienoic acid derivatives useful as inhibitors of bone resorption” (SmithKline Beecham SpA, priority 1996, dated 2000).

Target: Bafilomycin-Sensitive ATPase in Chicken Osteoclasts
Experiment: Inhibition of bafilomycin-sensitive ATPase activity in purified membrane vesicles (Pi release, malachite green)
Assay type: biochemical
Details: chicken osteoclast membranes
Description: Preparation of crude bone microsomes from calcium-starved egg-laying hens.
Vesicles were prepared from medullar bone obtained from tibiae and femurs of egg-laying hens which were calcium-starved for at least 15 days. Briefly, bone fragments were scraped with a 24 scalpel blade, suspended in 40 ml of isolation medium (0.2M sucrose, 50 mM KCl, 10 mM Hepes, 1 mM EGTA, 2 mM dithiotheitrol, pH 7.4) and filtered through a 100 μm pore size nylon mesh. The whole procedure was performed at 4° C. After homogenisation in a potter (20 strokes) in 40 ml of isolation medium an initial centrifugation (6,500×gmax ×20 min) was performed to remove mitochondria and lysosomes. The supernatant was centrifuged at 100,000×gmax for 1 hr and the pellet was collected in 1 ml of isolation medium, divided into 200 μl aliquots, immediately frozen in liquid nitrogen and stored at […]. The protein content was determined using a Biorad colourimetric kit according to Bradford [M. Bradford, Anal. Biochem., 72, 248 (1976)]. For the proton transport assay, 5-10 μl of membranes were used.
Purification of osteoclast membranes. 1 ml of crude microsomal vesicles prepared above were applied (about 0.2 ml per tube) on the top of a sucrose step-gradient consisting of 3.5 ml of 15%, 30% and 45% (w/w) sucrose in isolation medium and centrifuged at 280,000 gmax for 2 hours (SW 41 Ti rotor). After centrifugation the 30-45% sucrose interfaces were collected, diluted approx. 20-fold in isolation medium and pelletted at 100,000 gmax for 1 hour (SW 28 rotor). The pellet was then resuspended in 1 ml of isolation medium, aliquoted and frozen in liquid N2 and stored at -80° C. until used.
Inhibition of bafilomycin-sensitive ATPase activity was assessed in purified membrane vesicles by measuring the release of inorganic phosphate (Pi) during 30 min of incubation at 37° C. in a 96-well plate either in the presence or in the absence of bafilomycin A1. The reaction medium contained 1 mM ATP, 10 mM HEPES-Tris pH 8, 50 MM KCl, 5 uM valinomycin, 5 uM nigericin, 1 mM CDTA-Tris, 100 uM ammonium molybdate, 0.2M sucrose and membranes (20 ug protein/ml). The reaction was initiated by MgSO4 (8-arm pipette) and stopped, after 30 min, by addition of 4 volumes of the malachite green reagent (96-arm pipette) prepared according to Chan [Anal. Biochem. 157, 375 (1986)]. Absorbance at 650 nm was measured after 2 min using a microplate reader. Results are expressed as μmol (Pi)×mg protein^-1 ×hour^-1 and, for each experiment, represent the mean±sem of triplicates.

| SMILES | IC50 |
| --- | --- |
| CO/C(=C\C=C\c1cc2ccccc2s1)C(=O)NC1CC(C)(C)N(C)C(C)(C)C1 [Example 12, (2Z,4E)-5-(Benzothiophen-2-yl)-2-methoxy-N-[(1,2,2,6,6-pentamethyl)-piperidin-4-yl]-2,4-pentadienamide] | 10.6 µM |
| CO/C(=C\C=C\c1cc2cc(Cl)ccc2o1)C(=O)NC1CC(C)(C)N(C)C(C)(C)C1 [Example 8] | 0.5 µM |
| CO/C(=C\C=C\c1cc2ccccc2o1)C(=O)NC1CC(C)(C)NC(C)(C)C1 [Example 3, (2Z,4E)-5-(Benzofuran-2-yl)-2-methoxy-N-((2,2,6,6-tetramethyl)-piperidin-4-yl)-2,4-pentadienamide] | 8.6 µM |
| CO/C(=C\C=C\c1cc2ccccc2o1)C(=O)NC1CC(C)(C)N(C)C(C)(C)C1 [Example 5, (2Z,4E)-5-(Benzofuran-2-yl)-2-methoxy-N[(1,2,2,6,6-pentamethyl)-piperidin-4-yl]-2,4-pentadienamide] | 11 µM |
| CCN(CC)CCCNC(=O)/C(=C/C=C/c1cc2cc(Cl)ccc2o1)OC [Example 9, (2Z,4E)-5-(5-Chlorobenzofuran-2-yl)-N-(3-diethylaminopropyl)-2-methoxy-2,4-pentadienamide] | 10 µM |

System: osteoclast cultures
Experiment: not given
Details: cited from earlier work

| SMILES | inhibition of bone resorption |
| --- | --- |
| CO/C1=C\C(C)=C\[C@@H](C)[C@@H](O)[C@@H](C)C/C(C)=C/C=C/[C@H](OC)[C@@H]([C@@H](C)[C@@H](O)[C@H](C)[C@@]2(O)C[C@@H](O)[C@H](C)[C@@H](C(C)C)O2)OC1=O [bafilomycin A1] | able to inhibit bone resorption |

System: osteoclast proton pump
Experiment: not given
Details: avian osteoclast membrane vesicles, ATP-driven acidification; cited from earlier work

| SMILES | inhibition of proton transport |
| --- | --- |
| Cc1nc2c(OCc3ccccc3)cccn2c1CC#N [SCH 28080] | not inhibited |
| C[C@@H]1O[C@@H](O[C@H]2C[C@@H](O)[C@]3(CO)[C@H]4[C@H](O)C[C@]5(C)[C@@H](C6=CC(=O)OC6)CC[C@]5(O)[C@@H]4CC[C@]3(O)C2)[C@H](O)[C@H](O)[C@H]1O [ouabain] | not inhibited |
| CO/C1=C\C(C)=C\[C@@H](C)[C@@H](O)[C@@H](C)C/C(C)=C/C=C/[C@H](OC)[C@@H]([C@@H](C)[C@@H](O)[C@H](C)[C@@]2(O)C[C@@H](O)[C@H](C)[C@@H](C(C)C)O2)OC1=O [bafilomycin A1] | inhibited |
| [Na+].[Na+].[Na+].[O]=[V]([O-])([O-])[O-] [sodium orthovanadate] | not inhibited |
| CCN1C(=O)C=CC1=O [N-ethylmaleimide] | inhibited |
| COc1ccc2[nH]c([S+]([O-])Cc3ncc(C)c(OC)c3C)nc2c1 (stereo not drawn) [omeprazole] | not inhibited |
